# Experimental data as given in paper PMC4877593, “Design and Synthesis of Potent in Vitro and in Vivo Anticancer Agents Based on 1-(3′,4′,5′-Trimethoxyphenyl)-2-Aryl-1H-Imidazole” (Scientific Reports, 2016).
# Assays:
# HeLa = test: Mitochondrial membrane potential (JC-1), HeLa; assay type: cell-based, human; conditions: HeLa, 50, 100 and 250 nM; time- and concentration-dependent
# Procedure: Mitochondria play an essential role in the propagation of apoptosis. It is well established that, at an early stage, apoptotic stimuli alter the mitochondrial transmembrane potential (Δψmt). Δψmt was monitored by the fluorescence of the dye JC-1. […] This occurred in a time- and concentration-dependent fashion, and, in both cell lines, a significant increase was observed after a 6 h treatment. The disruption of Δψmt is associated with the appearance of annexin-V positivity in the treated cells when they are in an early apoptotic stage. […] Cells were treated with the indicated concentration of compound for 24 or 48 h and then stained with the fluorescent probe JC-1 for analysis of mitochondrial potential or H2-DCFDA for the evaluation of ROS levels. Cells were then analyzed by flow cytometry as described in the experimental section.
# HeLa cells [1] = test: Cell cycle distribution by flow cytometry (PI), HeLa; assay type: cell-based, human
# Procedure: The effects of a 24 h treatment with different concentrations of 4o on cell cycle progression in Jurkat, and HeLa cells were determined by flow cytometry, following propidium iodide (PI) staining of the cells (Fig. 4, Panels A,B). […] In the HeLa cells, the G2/M block was accompanied by a significant reduction of both G1 and S phase cells. In order to determine whether 4o was able to block cells at the mitotic phase (M), cells were stained with an immunofluorescent antibody to p-histone H3, a well known mitotic marker, as well as PI, and analyzed by flow cytometry. As shown in Fig. 4 (Panel C), in which representative histograms are presented, Hela cells arrested in M phase by treatment with 4o are readily distinguished from G2 cells by the higher level of p-histone H3. In particular, treatment with 4o induced an increase in the percentage of mitotic cells from the 2% observed in untreated cells to about 30% with both 50 and 100 nM 4o at 24 h (Fig. 4, Panel D).
# 5 × 10^5 HeLa or Jurkat cells were treated with different concentrations of the test compounds for 24 h. After the incubation period, the cells were collected, centrifuged, and fixed with ice-cold ethanol (70%). […] Samples were analyzed on a Cytomic FC500 flow cytometer (Beckman Coulter). DNA histograms were analyzed using MultiCycle for Windows (Phoenix Flow Systems).
# HeLa cells [2] = test: Western blot analysis of cell cycle, spindle checkpoint and apoptosis proteins; assay type: cell-based, human
# Procedure: HeLa cells were incubated in the presence of 4o and, after different times, were collected, centrifuged, and washed two times with ice cold phosphate buffered saline (PBS). The pellet was then resuspended in lysis buffer. After the cells were lysed on ice for 30 min, lysates were centrifuged at 15000 × g at 4 °C for 10 min. The protein concentration in the supernatant was determined using the BCA protein assay reagents (Pierce, Italy). Equal amounts of protein (10 μg) were resolved using sodium dodecyl sulfate-polyacrylamide gel electrophoresis (SDS-PAGE) (Criterion Precast, BioRad, Italy) and transferred to a PVDF Hybond-P membrane (GE Healthcare). Membranes were blocked with a bovine serum albumin solution (5% in Tween PBS 1X), the membranes being gently rotated overnight at 4 °C. Membranes were then incubated with primary antibodies against Bcl-2, PARP, cdc25c, CDC20, ROCK1, MAD2, p-H2AX^Ser139, cyclin B, p-cdc2^Tyr15, […] (all from Cell Signaling), caspase-3 (Alexis), or β-actin (Sigma-Aldrich) for 2 h at room temperature. Membranes were next incubated with peroxidase labeled secondary antibodies for 60 min. All membranes were visualized using ECL Select (GE Healthcare), and images were acquired using an Uvitec-Alliance imaging system (Uvitec, Cambridge, UK). To ensure equal protein loading, each membrane was stripped and reprobed with anti-β-actin antibody.
# Jurkat = test: Annexin-V/PI apoptosis assay, Jurkat; assay type: cell-based, human; conditions: 24 h, lowest concentration used (50 nM)
# Procedure: To evaluate the induction of apoptosis by compound 4o in two cell lines (HeLa and Jurkat), we used an annexin-V/PI assay. Dual staining for annexin-V and with PI permits discrimination between live cells (annexin-V^−/PI^−), early apoptotic cells (annexin-V^+/PI^−), late apoptotic cells (annexin-V^+/PI^+) and necrotic cells (annexin-V^−/PI^+).
# Cell death was determined by flow cytometry of cells double stained with annexin V/FITC and PI. The Coulter Cytomics FC500 (Beckman Coulter) was used to measure the surface exposure of phosphatidyl serine on apoptotic cells according to the manufacturer’s instructions (Annexin-V Fluos, Roche Diagnostics).
# [3] = test system: BL6-B16 mouse melanoma cell line; test: Mouse allograft (syngeneic) tumor model; assay type: in vivo; conditions: for reduction of tumor mass: doses on days 9, 11 and 14, C57BL/6 mice
# Procedure: […] As reference compound, CA-4P (1b) was used at 30 mg/kg. The BL6-B16 mouse melanoma cell line, injected subcutaneously in syngeneic C57/BL6 mice, is able to proliferate and generate tumor masses.
# Figure 9 Inhibition of mouse allograft growth in vivo by compound 4o. Male C57BL/6 mice were injected subcutaneously at their dorsal region with […] BL6-B16 murine melanoma cells. […] Injections were given intraperitoneally at the days indicated by the arrows. Data are presented as mean ± SEM of tumor volume at each time point for 5 animals per group. *p < 0.05, **p < 0.01 ***p < 0.001 vs. control.
# Six week old C57BL/6 mice (Charles River, Calco) were injected subcutaneously into the dorsolateral flank with 2.5 × 10^5 BL6-B16 murine melanoma cells in 200 μL-total volume of PBS. When tumors were palpable, animals were treated intraperitoneally every other day with different doses of test compounds dissolved in 50 μL of DMSO. Tumors were measured in two dimensions, and tumor volume was calculated according to the formula V = (D × d^2)/2, where D and d are the major and minor perpendicular tumor diameters, respectively.
# [4] = HeLa, 24 h, all concentrations examined
# [5] = highest dose (7.5 mg/kg i.p.), mice, data not shown
smiles,measurement,setting,value
"CCOc1ccc(-c2nccn2-c2cc(OC)c(OC)c(OC)c2)cc1Cl [Compound 4o, 2-(3′-Chloro-4′-ethoxyphenyl)-1-(3′,4′,5′-trimethoxyphenyl)-1H-imidazole]",percentage of cells with low Δψmt (JC-1),HeLa,remarkable increase
same,lowest concentration with a rise in G2/M cells,HeLa cells [1]; 24 h treatment,25 nM
same,cells arrested in G2/M,"HeLa cells [1]; highest concentration, 24 h",more than 80%
same,phosphorylation of γH2A.X (Ser139),HeLa cells [2]; HeLa,remarkable increase
same,cyclin B1 expression,"HeLa cells [2]; HeLa, 50 nM, 24 h",marked increase
same,MAD2 expression,"HeLa cells [2]; HeLa, 24 and 48 h",substantially decreased
same,expression of phosphorylated cdc2,"HeLa cells [2]; HeLa, 24 and 48 h",strongly decreased
same,PARP,"HeLa cells [2]; HeLa, 50, 100 and 250 nM, 24 and 48 h",cleavage of PARP
same,caspase-3,"HeLa cells [2]; HeLa, 50, 100 and 250 nM, in particular after 48 h",activation of the effector caspase-3
same,level of cdc20,"HeLa cells [2]; HeLa, 24 h",remained unaffected
same,total cdc25c expression,"HeLa cells [2]; HeLa, 24 h",strongly reduced
same,Bcl-2 expression,HeLa cells [2]; [4],dramatic decrease
same,Mcl-1 expression,HeLa cells [2]; [4],dramatic decrease
same,phosphorylation of PLK1,"HeLa cells [2]; HeLa, 24 h, effect disappeared at 48 h",marked increase
same,ROCK1 cleavage,"HeLa cells [2]; HeLa, 48 h",cleaved bands of ROCK1 appeared
same,annexin-V positive cells,Jurkat,significant accumulation of annexin-V positive cells
same,reduction of tumor mass,[3]; 1 mg/kg i.p.,26.0%
same,reduction of tumor mass,[3]; 3.5 mg/kg i.p.,32.2%
same,reduction of tumor mass,[3]; 7.5 mg/kg i.p.,45.8%
same,animal body weight,[3]; [5],did not cause a decrease in animal body weight
same,signs of toxicity,[3]; [5],did not present any sign of toxicity
